Holding throughout (type): cell-based
Assay [1] relates to human dermal fibroblasts. Kind of assay: Wound repair/closure of an incised wound area in a culture of human dermal fibroblasts. The conditions noted are these: for percentage of wound repair/closure relative to the CTL group: 18 hours. The method, then:
(§1) Human dermal fibroblasts (CCD-966SK cells, former ATCC CRL-1881), a type of adherent skin cells, were cultured in minimum essential medium supplemented with 10% (v/v) fetal bovine serum (FBS), 0.37% (w/v) sodium bicarbonate, 0.1 mM non-essential amino acid solution (NEAA), 1 mM sodium pyruvate, 0.03% (w/v) […], 100 units/ml penicillin and 100 μg/ml streptomycin at 37° C. under humidified atmosphere (relative humidity of 80%) containing 5% CO2. During the culture, the medium was renewed every two days. When the cultured cells reached confluence and formed a monolayer, which was examined by an inverted microscope, a subculture was carried out.
Due to the importance of wound healing, the inventors of the present application studied the promoting effect of the compound of formula (I) on wound healing of skin in EXAMPLE 4. The following four groups were compared in this example: • (1) Control group (CTL group): creating an incised wound area in a culture of human dermal fibroblasts and then incubating and examining the culture for 18 hours; • (2) One dose-18 hours group (1X-18 group): creating an incised wound area in a culture of human dermal fibroblasts and adding one dose of the compound of the present invention to the culture; and then examining changes in the wound area of human dermal fibroblasts after an incubation of 18 hours, wherein the term “one dose” refers to 8.75 ng/mL of the compound of formula (I) in DMSO; • (3) Double dose-18 hours group (2X-18 group): creating an incised wound area in a culture of human dermal fibroblasts and adding one dose of the compound of the present invention to the culture; and then examining changes in the wound area of human dermal fibroblasts after an incubation of 18 hours, wherein the term “double dose” refers to 17.5 ng/mL of the compound of formula (I); and • (4) Fourfold dose-18 hours group (4X-18 group): creating an incised wound area in a culture of human dermal fibroblasts and adding one dose of the compound of the present invention to the culture; and then examining changes in the wound area of human dermal fibroblasts after an incubation of 18 hours, wherein the term “fourfold dose” refers to 35 ng/mL of the compound of formula (I).
According to FIG. 8, a constant number of fibrocytes (about 1-2×10^5 cells) were produced in each of the CTL, 1X-18, 2X-18, and 4X-18 groups to repair and close the wound at 18 hours after wounding.
In addition, a percentage of wound repair/closure in the wound area of human dermal fibroblasts was determined for the above four groups by analyzing the surface area change of the wound area in FIG. 8 using the software ImageJ. […]

Assay [2] has as its system MMP-9 gene expression. Kind of assay: MMP-9 gene expression by RT-PCR in human dermal fibroblasts. The conditions noted are these: 1X-24 group: 8.75 ng/mL, 24 hours. The method, then:
as §1
Therefore, the inventors of the present application studied the inhibitory effect of the compound of formula (I) on MMP-9 gene expression in EXAMPLE 2. […]

Assay [3] relates to mouse melanoma cell line B16F10. Kind of assay: Melanin quantification assay in mouse melanoma cell line B16F10. The conditions noted are these: for decreased melanin content compared with the CTL group: 48 hours, B16F10. On the procedure: Therefore, the inventors of the present application studied the inhibitory effect of the compound of formula (I) on MITF gene expression in EXAMPLE 3. The following five groups were compared in this example: • (1) Control group (CTL group): incubating a culture of human dermal fibroblasts for a predetermined time; • (2) One dose-24 hours group (1X-24 group): adding one dose of the compound of the present invention to a culture of human dermal fibroblasts and then examining the culture after an incubation of 24 hours, wherein the term “one dose” refers to 8.75 ng/mL of the compound of formula (I) in DMSO; • (3) One dose-48 hours group (1X-48 group): adding one dose of the compound of the present invention to a culture of human dermal fibroblasts and then examining the culture after an incubation of 48 hours; • (4) Double dose-24 hours group (2X-24 group): adding a double dose of the compound of the present invention to a culture of human dermal fibroblasts and then examining the culture after an incubation of 24 hours, wherein the term “double dose” refers to 17.5 ng/mL of the compound of formula (I); and • (5) Double dose-48 hours group (2X-48 group): adding a double dose of the compound of the present invention to a culture of human dermal fibroblasts and then examining the culture after an incubation of 48 hours.
In addition, a melanin quantification assay was performed to examine the change of melanin content in mouse melanoma cell line B16F10 (ATCC CRL-6475) upon addition of the compound of the present invention. The treatment of the cells was the same as described above. […] Thus, it is concluded that the compound at a concentration between 8 ng/ml and 18 ng/ml causes a decrease of at least 20% in melanin formation in mouse melanoma cells.

Assay [4] has as its system human dermal fibroblasts. Kind of assay: Collagen secretion assay (Sircol) in human dermal fibroblasts. The conditions noted are these: for increase in collagen secretion compared with the CTL group: 24 hours.
Assay [5] concerns MITF gene expression. Kind of assay: MITF gene expression by RT-PCR in human dermal fibroblasts. The conditions noted are these: 2X-48 group: 17.5 ng/mL, 48 hours. The method, then:
as §1
Therefore, the inventors of the present application studied the inhibitory effect of the compound of formula (I) on MITF gene expression in EXAMPLE 3. […]

`C=C1CC[C@@H](C)C2C[C@@H](O)[C@@H](C(C)C(=O)O)CC12` (stereo partly drawn) [compound of formula (I)]: the “degree of repair/closure in the wound area compared with the CTL group (micrographs)” value in assay [1] (1X-18, 2X-18 and 4X-18 groups (8.75, 17.5, 35 ng/mL), 18 hours after wounding) was “significantly higher degree of repair/closure”. Further, the “percentage of wound repair/closure relative to the CTL group” value in assay [1] (1X-18 group: 8.75 ng/mL) was 1.21 fold; in assay [1] (2X-18 group: 17.5 ng/mL), 1.4 fold; in assay [1] (4X-18 group: 35 ng/mL) it was 1.5 fold. In addition, in assay [2], the “inhibition of MMP-9 gene expression compared with the CTL group” value is listed as “about 80%”. Moreover, the entries for the “decreased melanin content compared with the CTL group” value in assay [3] (1X-48 group: 8.75 ng/mL) and in assay [3] (2X-48 group: 17.5 ng/mL) were 20% and 40%, respectively. In assay [3] (concentration between 8 ng/ml and 18 ng/ml, mouse melanoma cells), the “decrease in melanin formation” value is given as “at least 20%”. For the same compound, the “increase in collagen secretion compared with the CTL group” value is 20% in assay [4] (1X-24 group: 8.75 ng/mL) and 30% in assay [4] (2X-24 group: 17.5 ng/mL). For the same compound, in assay [4] (concentration between 8 ng/ml and 18 ng/ml), the “increase in collagen secretion” value is given as “at least 20%”. Besides, the “inhibition of MITF gene expression compared with the CTL group” value in assay [5] is on record as “about 50%”.

These data come from patent US10092530B2, “Method for inhibiting melanogenesis and promoting collagen production and wound healing” (TCI Co., Ltd, priority 2015, dated 2018).
